Reference: patent publication US20230014907A1, “INHIBITORS OF APOL1 AND METHODS OF USING SAME” (Vertex Pharmaceuticals Incorporated, priority 2020, published 2023)

Tests used:
APOL1 G1 Protein = biological target: T1, APOL1 G1 Protein (Homo sapiens, UniProt O14791, I384M/S342G); experiment: Trypanosoma brucei brucei Lysis Assay Using APOL1 Recombinant Protein (AlamarBlue viability); assay type: cell-based; conditions: read-out: Trypanosomal Assay (IC50)
T1 sequence (O14791 28-398 S342G/I384M): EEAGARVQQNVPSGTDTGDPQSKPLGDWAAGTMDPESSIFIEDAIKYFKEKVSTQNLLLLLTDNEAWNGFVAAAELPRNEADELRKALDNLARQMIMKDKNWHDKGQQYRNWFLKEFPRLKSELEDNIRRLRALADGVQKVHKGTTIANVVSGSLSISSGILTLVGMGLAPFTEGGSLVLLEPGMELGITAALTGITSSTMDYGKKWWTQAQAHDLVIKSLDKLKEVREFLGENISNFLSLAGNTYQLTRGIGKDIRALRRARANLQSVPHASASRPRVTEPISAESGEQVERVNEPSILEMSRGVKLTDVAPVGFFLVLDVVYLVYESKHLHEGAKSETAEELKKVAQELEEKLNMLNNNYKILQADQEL
Outline: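 Lister 427 bloodstream-form trypanosomes seeded at 120,000 per well in phenol-red-free, serum-free medium and lysed with recombinant APOL1 variant protein. Viability read by AlamarBlue (resazurin) fluorescence. Percent viability relative to untreated wells, interpolated from a standard curve of seeded parasites.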

G1 APOL1 = biological target: T2, G1 APOL1 (Homo sapiens, UniProt O14791, I384M/S342G); experiment: Acute APOL1 Thallium Assay with Inducible Stable Clones of HEK 293 Cells; assay type: cell-based; conditions: HEK 293 inducible stable clones, G1 APOL1; read-out: Thallium Assay (IC50)
T2 construct: expressed in transfected cells
T2 sequence (O14791 28-398 S342G/I384M): T1 sequence (O14791 28-398 S342G/I384M)
Outline: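 Pore activity was read as the fluorescence increase from Tl+ entering cells loaded with an AM-ester thallium indicator dye. The cells were tetracycline-inducible HEK293 T-Rex expressing G1 APOL1 (clone DC3.25), induced when plated at 26000 per well and incubated at 37° C.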

Structure (SMILES)	IC50 (G1 APOL1) [nM]	IC50 (APOL1 G1 Protein) [nM]
O=C(CCc1c(-c2ccc(F)cc2)[nH]c2c(F)cc(F)cc12)N[C@H]1CC[C@H](O)C1 [Compound 135]	> 1000	> 1000
O=C(CCc1c(-c2ccc(F)cc2)[nH]c2c(F)cc(F)cc12)N1CCCC1CCO (stereo not shown) [Compound 136]	> 1000	> 1000
O=C(CCc1c(-c2ccc(F)cc2)[nH]c2c(F)cc(F)cc12)NC[C@@H](O)C(F)(F)F [Compound 137]	> 1000	> 1000
O=C(CCc1c(-c2ccc(F)cc2)[nH]c2c(F)cc(F)cc12)N1CC[C@H]1CO [Compound 138]	> 1000	> 1000
O=C(CCc1c(-c2ccc(F)cc2)[nH]c2c(F)cc(F)cc12)NC1C(=O)Nc2ccc(F)cc21 (stereo not shown) [Compound 139]	> 1000	> 1000
O=C(CCc1c(-c2ccc(F)cc2)[nH]c2c(F)cc(F)cc12)NCC1(CO)COC1 [Compound 140]	> 1000	> 1000
O=C(CCc1c(-c2ccc(F)cc2)[nH]c2c(F)cc(F)cc12)NC1CC1(F)F (stereo not shown) [Compound 142]	> 1000	> 1000
CN(CCO)C(=O)CCc1c(-c2ccc(F)cc2)[nH]c2c(F)cc(F)cc12 [Compound 143]	> 1000	> 1000
Cn1nccc1NC(=O)CCc1c(-c2ccc(F)cc2)[nH]c2c(F)cc(F)cc12 [Compound 144]	> 1000	> 1000
O=C(CCc1c(-c2ccc(F)cc2)[nH]c2c(F)cc(F)cc12)N1CCC[C@H]1CO [Compound 145]	> 1000	> 1000
O=C(CCc1c(-c2ccc(F)cc2)[nH]c2c(F)cc(F)cc12)Nc1cnoc1 [Compound 146]	> 1000	> 1000
O=C(CCc1c(-c2ccc(F)cc2)[nH]c2c(F)cc(F)cc12)Nc1nnc(C(F)(F)F)o1 [Compound 148]	> 1000	> 1000
C[C@@H](CO)N(C)C(=O)CCc1c(-c2ccc(F)cc2)[nH]c2c(F)cc(F)cc12 [Compound 149]	> 1000	> 1000
CN(CC(N)=O)C(=O)CCc1c(-c2ccc(F)cc2)[nH]c2c(F)cc(F)cc12 [Compound 150]	> 1000	> 1000

The next lines start with results.

IC50 (G1 APOL1) [nM]	Structure (SMILES)	IC50 (APOL1 G1 Protein) [nM]
< 250	C[C@H](CO)NC(=O)CCc1c(-c2ccc(F)cc2)[nH]c2c(F)cc(F)cc12 [Compound 120]	< 250
< 250	O=C(CCc1c(-c2ccc(F)cc2)[nH]c2c(F)cc(F)cc12)N[C@@H](CO)C(F)(F)F [Compound 121]	< 250
250 to 1000	O=C(CCc1c(-c2ccc(F)cc2)[nH]c2c(F)cc(F)cc12)NC1(CO)CC(F)(F)C1 [Compound 122]	> 1000
> 1000	NC(=O)[C@H](CO)NC(=O)CCc1c(-c2ccc(F)cc2)[nH]c2c(F)cc(F)cc12 [Compound 123]	> 1000
250 to 1000	O=C(CCc1c(-c2ccc(F)cc2)[nH]c2c(F)cc(F)cc12)NC1CCC1(F)F (stereo not shown) [Compound 124]	> 1000
> 1000	Cc1csc(NC(=O)CCc2c(-c3ccc(F)cc3)[nH]c3c(F)cc(F)cc23)n1 [Compound 125]	> 1000
250 to 1000	O=C(CCc1c(-c2ccc(F)cc2)[nH]c2c(F)cc(F)cc12)NC1(CO)COC1 [Compound 126]	250 to 1000
> 1000	O=C(CCc1c(-c2ccc(F)cc2)[nH]c2c(F)cc(F)cc12)NC1(C(F)(F)F)CC1 [Compound 129]	> 1000
> 1000	O=C(CCc1c(-c2ccc(F)cc2)[nH]c2c(F)cc(F)cc12)NCc1ccc(Cl)s1 [Compound 130]	> 1000
< 250	O=C(CCc1c(-c2ccc(F)cc2)[nH]c2c(F)cc(F)cc12)NC1(CO)CC1 [Compound 131]	< 250
> 1000	O=C(CCc1c(-c2ccc(F)cc2)[nH]c2c(F)cc(F)cc12)NCc1ncc[nH]1 [Compound 134]	> 1000
250 to 1000	CC(=O)OCC(CO)NC(=O)CCc1c(-c2ccc(F)cc2)[nH]c2c(F)cc(F)cc12 (stereo not shown) [Compound 141]	250 to 1000
